Data taken from ChEMBL document CHEMBL1201862, “PubChem BioAssay data set” (2004).
Values joined by “and” are separate entries in the source; they are usually repeats but may differ in a detail not shown here. Equal entries are not always repeated.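 Results reflect a 48-hour exposure of cells in 96-well plates to compound at five concentrations. GI50: concentration for 50% inhibition of growth.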 Active and inactive are the calls of the source. Rule as the data show it: active = GI50 up to about 1.1 µM and inactive = higher. Peptide text beside a SMILES is read from it. * marks the point of attachment. Fmoc = O=C(OCC1c2ccccc2-c2ccccc21)*; Boc = CC(C)(C)OC(=O)*; OtBu = CC(C)(C)O*

What was measured:
Assay in all cases: NCI anticancer screen, dose series, 48 h
[1] = tested on: LOX IMVI
[2] = tested on: K562
[3] = tested on: KM12
[4] = tested on: A498
[5] = tested on: NCI-H460
[6] = tested on: SN12C
[7] = tested on: HCC 2998
[8] = tested on: HCT-116
[9] = tested on: MDA-MB-435
[10] = tested on: Malme-3M
[11] = tested on: 786-0
[12] = tested on: MCF7
[13] = tested on: MOLT-4
[14] = tested on: DU-145
[15] = tested on: A549
[16] = tested on: NCI-H23
[17] = tested on: Hs-578T
[18] = tested on: MDA-MB-231
[19] = tested on: PC-3
[20] = tested on: CAKI-1
[21] = tested on: RPMI-8226
[22] = tested on: HL-60
[23] = tested on: ACHN
[24] = tested on: TK-10
[25] = tested on: SF-295
[26] = tested on: SK-OV-3
[27] = tested on: CCRF-CEM
[28] = tested on: NCI-H522
[29] = tested on: T47D
[30] = tested on: HCT-15
[31] = tested on: HOP-62
[32] = tested on: UACC-257
[33] = tested on: SF-539
[34] = tested on: SF-268
[35] = tested on: SW-620
[36] = tested on: SNB-75
[37] = tested on: M14
[38] = tested on: EKVX
[39] = tested on: HT-29
[40] = tested on: MDA-N
[41] = tested on: SR
[42] = tested on: IGROV-1
[43] = tested on: BT-549
[44] = tested on: UACC-62
[45] = tested on: SK-MEL-28
[46] = tested on: COLO 205
[47] = tested on: SK-MEL-5
[48] = tested on: OVCAR-8
[49] = tested on: SNB-19
[50] = tested on: OVCAR-5
[51] = tested on: SK-MEL-2
[52] = tested on: OVCAR-3
[53] = tested on: OVCAR-4
[54] = tested on: NCI-H226
[55] = tested on: RXF 393
[56] = tested on: UO-31
[57] = tested on: HOP-92
[58] = tested on: U-251

COc1ccc(C(=O)/C=C/c2ccc(OCCSCCCCCCCCCCSCCOc3ccc(/C=C/C(=O)c4ccc(OC)c(OC)c4)cc3)cc2)cc1OC
GI50 [1]: > 100 µM (inactive) | GI50 [2]: > 100 µM (inactive) | GI50 [3]: > 100 µM (inactive) | GI50 [4]: > 100 µM (inactive) | GI50 [5]: > 100 µM (inactive) | GI50 [6]: > 100 µM (inactive) | GI50 [7]: > 100 µM (inactive) | GI50 [8]: > 100 µM (inactive) | GI50 [9]: > 100 µM (inactive) | GI50 [10]: > 100 µM (inactive) | GI50 [11]: > 100 µM (inactive) | GI50 [12]: > 100 µM (inactive) | GI50 [13]: > 100 µM (inactive) | GI50 [14]: > 100 µM (inactive) | GI50 [15]: > 100 µM (inactive) | GI50 [16]: > 100 µM (inactive) | GI50 [17]: > 100 µM (inactive) | GI50 [18]: > 100 µM (inactive) | GI50 [19]: > 100 µM (inactive) | GI50 [20]: > 100 µM (inactive) | GI50 [21]: > 100 µM (inactive) | GI50 [22]: > 100 µM (inactive) | GI50 [23]: > 100 µM (inactive) | GI50 [24]: > 100 µM (inactive) | GI50 [25]: > 100 µM (inactive) | GI50 [26]: > 100 µM (inactive) | GI50 [27]: > 100 µM (inactive) | GI50 [28]: 73.8 µM (inactive) | GI50 [29]: > 100 µM (inactive) | GI50 [30]: > 100 µM | GI50 [31]: > 100 µM (inactive) | GI50 [32]: > 100 µM (inactive) | GI50 [33]: > 100 µM (inactive) | GI50 [34]: > 100 µM (inactive) | GI50 [35]: > 100 µM (inactive) | GI50 [36]: > 100 µM (inactive) | GI50 [37]: > 100 µM (inactive) | GI50 [38]: > 100 µM (inactive) | GI50 [39]: > 100 µM (inactive) | GI50 [40]: > 100 µM (inactive) | GI50 [41]: > 100 µM (inactive) | GI50 [42]: > 100 µM (inactive) | GI50 [43]: > 100 µM (inactive) | GI50 [44]: > 100 µM (inactive) | GI50 [45]: > 100 µM (inactive) | GI50 [46]: > 100 µM (inactive) | GI50 [47]: > 100 µM (inactive) | GI50 [48]: > 100 µM (inactive)

COCC1OC(OC2C3=C(C(C)C)CCC3(C)/C=C3\C(CCC3(O)COC)C(C)C2O)C(O)C2OC3OC12OC3(C)C1CO1 (stereo not given)
GI50 [1]: 22.5 µM (inactive) | GI50 [49]: 28.1 µM (inactive) | GI50 [2]: 25.1 µM (inactive) | GI50 [50]: > 100 µM (inactive) | GI50 [3]: 52.8 µM (inactive) | GI50 [4]: 44 µM (inactive) | GI50 [5]: 32.7 µM (inactive) | GI50 [6]: 50.9 µM (inactive) | GI50 [7]: 42.2 µM (inactive) | GI50 [8]: 34 µM (inactive) | GI50 [9]: 31 µM (inactive) | GI50 [10]: 34.7 µM (inactive) | GI50 [51]: 83.6 µM (inactive) | GI50 [11]: 60.8 µM (inactive) | GI50 [52]: 26.4 µM (inactive) | GI50 [12]: 45.5 µM (inactive) | GI50 [13]: 27.6 µM (inactive) | GI50 [14]: 72.6 µM (inactive) | GI50 [15]: 53.8 µM (inactive) | GI50 [16]: 90.2 µM (inactive) | GI50 [17]: 19.6 µM (inactive) | GI50 [53]: 25.5 µM (inactive) | GI50 [18]: 50.9 µM (inactive) | GI50 [19]: 35 µM (inactive) | GI50 [20]: 21.8 µM (inactive) | GI50 [21]: 27.2 µM (inactive) | GI50 [22]: 16.3 µM (inactive) | GI50 [23]: 47.2 µM (inactive) | GI50 [24]: 29.9 µM (inactive) | GI50 [25]: 31.7 µM (inactive) | GI50 [54]: 16.3 µM (inactive) | GI50 [26]: 51.8 µM (inactive) | GI50 [27]: 24.3 µM (inactive) | GI50 [28]: 22.9 µM (inactive) | GI50 [29]: 29.4 µM (inactive) | GI50 [30]: 25.1 µM | GI50 [31]: 89.5 µM (inactive) | GI50 [32]: 40.3 µM (inactive) | GI50 [33]: 24.8 µM (inactive) | GI50 [34]: 16.9 µM (inactive) | GI50 [35]: 34.4 µM (inactive) | GI50 [55]: 21.2 µM (inactive) | GI50 [36]: 21.7 µM (inactive) | GI50 [56]: 16.4 µM (inactive) | GI50 [37]: 43.2 µM (inactive) | GI50 [57]: 17.2 µM (inactive) | GI50 [38]: 37.5 µM (inactive) | GI50 [39]: 34.8 µM (inactive) | GI50 [40]: 54.1 µM (inactive) | GI50 [41]: 41.8 µM (inactive) | GI50 [42]: 37.8 µM (inactive) | GI50 [43]: 16.6 µM (inactive) | GI50 [44]: 21.9 µM (inactive) | GI50 [58]: 24 µM (inactive) | GI50 [45]: 31.6 µM (inactive) | GI50 [46]: 41.5 µM (inactive) | GI50 [47]: 18 µM (inactive) | GI50 [48]: 48 µM (inactive)

CC(C)(C)OC(=O)CCC(NC(=O)OCC1c2ccccc2-c2ccccc21)C(=O)NC(Cc1c[nH]c2ccccc12)C(=O)NC(CCCCNC(=O)OC(C)(C)C)C(=O)N1CCCC1C(=O)NCC(N)=O (stereo not given) (Fmoc-E(OtBu)WK(Boc)PG-NH2; configuration not given here)
GI50 [1]: 22.5 µM (inactive) and 12.2 µM (inactive) | GI50 [49]: 19.6 µM (inactive) and 26.9 µM (inactive) | GI50 [2]: 30.1 µM (inactive) and 42.5 µM (inactive) | GI50 [5]: 25.9 µM (inactive) and 16.4 µM (inactive) | GI50 [7]: 66.7 µM (inactive) and 34.8 µM (inactive) | GI50 [10]: 19.7 µM (inactive) and 31 µM (inactive) | GI50 [51]: 18.2 µM (inactive) and 19.7 µM (inactive) | GI50 [11]: 20.7 µM (inactive) and 17.5 µM (inactive) | GI50 [52]: 19.4 µM (inactive) and 16.8 µM (inactive) | GI50 [12]: 24.9 µM (inactive) and 26.5 µM (inactive) | GI50 [13]: 28.2 µM (inactive) and 24.4 µM (inactive) | GI50 [17]: 17.3 µM (inactive) and 28.4 µM (inactive) | GI50 [53]: 12.9 µM (inactive) and 17.2 µM (inactive) | GI50 [18]: 15.6 µM (inactive) and 12.6 µM (inactive) | GI50 [21]: 17.4 µM (inactive) and 34.4 µM (inactive) | GI50 [23]: 17.7 µM (inactive) and 16.4 µM (inactive) | GI50 [25]: 34.8 µM (inactive) and 26.2 µM (inactive) | GI50 [28]: 1.62 µM (inactive) | GI50 [29]: 63.2 µM (inactive) and 52.5 µM (inactive) | GI50 [33]: 35.6 µM (inactive) and 63.7 µM (inactive) | GI50 [55]: 22.2 µM (inactive) and 15 µM (inactive) | GI50 [36]: 23.3 µM (inactive) and 16 µM (inactive) | GI50 [37]: 22.4 µM (inactive) and 39.7 µM (inactive) | GI50 [57]: 18.5 µM (inactive) and 17.6 µM (inactive) | GI50 [39]: > 100 µM (inactive) and 58.3 µM (inactive) | GI50 [40]: 17.8 µM (inactive) and 25.5 µM (inactive) | GI50 [41]: 26.5 µM (inactive) and 41.7 µM (inactive) | GI50 [42]: 31.2 µM (inactive) and 16 µM (inactive) | GI50 [43]: 16 µM (inactive) and 19.5 µM (inactive) | GI50 [44]: 15 µM (inactive) and 17 µM (inactive) | GI50 [58]: 17.3 µM (inactive) and 17.2 µM (inactive) | GI50 [45]: 48.1 µM (inactive) and 43.4 µM (inactive) | GI50 [47]: 32 µM (inactive) and 16.2 µM (inactive) | GI50 [48]: 34.6 µM (inactive) and 17.8 µM (inactive)
